This test concerns the target USP7 (Homo sapiens (Human), UniProt Q93009). Description: USP7 fluorescence polarisation (FP) assay with ubiquitin-Lys-TAMRA substrate. The class given is biochemical. Particulars: biochemical inhibition; for pIC50: read-out: USP7 IC50 activity (Table 3a, classes); for IC50: unit not given in Table 3b (Table 1 and key of Table 3a use μM), read-out: USP7 IC50 activity (Table 3b). The protocol: USP7 activity was monitored in a fluorescence polarisation (FP) homogeneous assay using the isopeptide ubiquitin-Lys-TAMRA substrate (U-558, Boston Biochem). Full-length USP7 was purchased from Boston Biochem (His6-USP7FL, E-519). Unless otherwise stated, all other reagents were purchased from Sigma-Aldrich. Enzymatic reactions were conducted in black flat-bottom low volume polystyrene 384-well plates (Grenier) and 15 μL total volume. USP7 (2.5 nM, 5 μL) was incubated in assay buffer (50 mM HEPES (pH 7.2), 150 mM NaCl, 5 mM DTT, 0.05% BSA (w/v), 0.05% CHAPS) in the presence or absence of inhibitor (5 μL). Inhibitors were stored as 10 mM DMSO stocks in an inert environment (low humidity, dark, low oxygen, room temperature) using a Storage Pod System and serial dilutions were prepared in buffer just prior to the assay (from 200 to 0.003 μM, 11 dp curve). Following incubation at room temperature for 30 min, the enzymatic reactions were initiated by dispensing the Ub substrate (50 nM, 5 μL). FP was measured every 5 min over a period of 1.5 h (within the linear range of the assay) using a Pherastar FSX (BMG Labtech) exciting at 530 nm and measuring the amount of parallel and perpendicular light at 575 nm. The FP signal was subsequently normalised to the control without compound present. Data were plotted and fitted, and the concentrations resulting in 50% inhibition (IC50) were calculated using the non-linear regression curve fitting model using GraphPad Prism.

For ten molecules, IC50 results are on record in US20250122223A1, “HETEROCYCLIC COMPOUNDS AS UBIQUITIN SPECIFIC PROTEASE 7 INHIBITORS” (ALMAC DISCOVERY LIMITED, priority 2022, published 2025).

pIC50: −log10 of the molar value. Read-outs that look alike come from different tables or passages of the source.

USP7, sequence (Q93009 whole entry): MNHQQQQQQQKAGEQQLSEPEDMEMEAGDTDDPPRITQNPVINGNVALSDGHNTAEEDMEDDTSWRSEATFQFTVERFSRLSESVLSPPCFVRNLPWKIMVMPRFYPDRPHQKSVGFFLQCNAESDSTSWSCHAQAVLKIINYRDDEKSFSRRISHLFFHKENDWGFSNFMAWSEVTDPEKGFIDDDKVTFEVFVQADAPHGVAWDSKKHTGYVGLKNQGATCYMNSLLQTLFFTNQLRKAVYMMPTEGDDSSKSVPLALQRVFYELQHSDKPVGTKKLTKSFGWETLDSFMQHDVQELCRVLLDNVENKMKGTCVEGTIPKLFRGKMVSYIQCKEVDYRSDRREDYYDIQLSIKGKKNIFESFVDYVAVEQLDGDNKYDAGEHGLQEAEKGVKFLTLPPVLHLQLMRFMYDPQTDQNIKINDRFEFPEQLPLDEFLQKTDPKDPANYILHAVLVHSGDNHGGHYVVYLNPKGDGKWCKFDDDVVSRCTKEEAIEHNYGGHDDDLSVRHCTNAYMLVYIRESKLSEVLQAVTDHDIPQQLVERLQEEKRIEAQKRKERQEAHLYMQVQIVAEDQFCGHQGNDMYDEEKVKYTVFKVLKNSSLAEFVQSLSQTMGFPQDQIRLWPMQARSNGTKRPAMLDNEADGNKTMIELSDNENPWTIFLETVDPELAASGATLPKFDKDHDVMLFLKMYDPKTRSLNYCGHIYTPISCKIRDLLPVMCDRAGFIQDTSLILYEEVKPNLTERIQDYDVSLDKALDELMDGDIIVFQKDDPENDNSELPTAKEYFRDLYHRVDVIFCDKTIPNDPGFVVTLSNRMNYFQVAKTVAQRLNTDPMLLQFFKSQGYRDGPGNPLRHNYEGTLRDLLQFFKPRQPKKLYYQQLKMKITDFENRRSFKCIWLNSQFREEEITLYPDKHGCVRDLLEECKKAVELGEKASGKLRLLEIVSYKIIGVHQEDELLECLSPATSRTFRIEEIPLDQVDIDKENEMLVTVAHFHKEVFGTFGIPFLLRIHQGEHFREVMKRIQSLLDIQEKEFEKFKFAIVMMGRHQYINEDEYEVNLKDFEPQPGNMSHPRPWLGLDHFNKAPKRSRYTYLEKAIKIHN

As to `CC1(C(=O)N2CCC(O)(Cn3cnc4c(cc(Cl)n4-c4ccc([C@H]5CO[C@H](C6CC6)CN5)cc4)c3=O)CC2)CC1` [Example 104, 6-Chloro-7-(4-((3S,6R)-6-cyclopropylmorpholin-3-yl)phenyl)-3-((4-hydroxy-1-(1-methylcyclopropane-1-carbonyl)piperidin-4-yl)methyl)-3,7-dihydro-4H-pyrrolo[2,3-d]pyrimidin-4-one], the negative-log IC50 (pIC50) (commonly the negative decadic logarithm of the IC50, by convention in mol/L) was > 7.00 and the half-inhibitory concentration (IC50) – broadly, the concentration that gives 50% inhibition – stood at 0.094 µM.

As to `O=C(N1CCC(O)(Cn2cnc3c(cc(Cl)n3-c3ccc([C@@H]4COCCN4)cc3)c2=O)CC1)C1(C2CC2)CC1` (single isomer, unassigned) [Example 80], the pIC50 is > 7.00 and the half-inhibitory concentration (IC50) was 0.041 µM.

As for `Cc1cc(-n2c(Cl)cc3c(=O)n(CC4(O)CCN(C(=O)c5ccc(Cl)cc5F)CC4)cnc32)ccc1[C@H]1CO[C@H](C)CN1` [Example 50, 6-Chloro-3-((1-(4-chloro-2-fluorobenzoyl)-4-hydroxypiperidin-4-yl)methyl)-7-(3-methyl-4-((3S,6R)-6-methylmorpholin-3-yl)phenyl)-3,7-dihydro-4H-pyrrolo[2,3-d]pyrimidin-4-one], the pIC50 was 6.60 to 7.00 and the IC50 came to 0.164 µM.

On to `C[C@@H]1CN[C@@H](c2ccc(-n3c(Cl)cc4c(=O)n(CC5(O)CCN(C(=O)[C@]6(C)C[C@H]6C(F)(F)F)CC5)cnc43)cc2)CO1` [Example 108, 6-Chloro-3-((4-hydroxy-1-((1R,2R)-1-methyl-2-(trifluoromethyl)cyclopropane-1-carbonyl)piperidin-4-yl)methyl)-7-(4-((3S,6R)-6-methylmorpholin-3-yl)phenyl)-3,7-dihydro-4H-pyrrolo[2,3-d]pyrimidin-4-one], for which the pIC50 was > 7.00 and the concentration for half-maximal inhibition (IC50) is 0.042 µM.

For `Cc1cc(-n2c(Cl)cc3c(=O)n(CC4(O)CCN(C(=O)C5(C)CC5)CC4)cnc32)ccc1[C@H]1COCCN1` (single isomer, unassigned) [Example 73], the negative-log IC50 (pIC50) is > 7.00 and the IC50 stood at 0.018 µM.

In the case of `O=C(c1ccc(Cl)cc1)N1CCC(O)(Cn2cnc3c(cc(Cl)n3-c3ccc([C@@H]4CO[C@@H](C5CC5)CN4)cc3)c2=O)CC1` (single isomer, unassigned) [Example 64], the pIC50 was 6.60 to 7.00 and the IC50 came to 0.11 µM.

Regarding `CC1(C)CN[C@@H](c2ccc(-n3c(Cl)cc4c(=O)n(CC5(O)CCN(C(=O)c6ccc(Cl)cc6)CC5)cnc43)cc2)CO1` (single isomer, unassigned) [Example 23], the pIC50 was 6.60 to 7.00 and the 50% inhibitory concentration (IC50) amounted to 0.143 µM.

As for `C[C@H]1CN[C@H](c2ccc(-n3c(Cl)cc4c(=O)n(CC5(O)CCN(C(=O)c6ccc(C(F)(F)F)cc6)CC5)cnc43)cc2)CO1` [Example 65, 6-Chloro-3-((4-hydroxy-1-(4-(trifluoromethyl)benzoyl)Piperidin-4-yl)methyl)-7-(4-((3R,6S)-6-methylmorpholin-3-yl)phenyl)-3,7-dihydro-4H-pyrrolo[2,3-d]pyrimidin-4-one], the negative logarithm of the IC50 (pIC50) is 6.60 to 7.00 and the IC50 was determined as 0.156 µM.

For the molecule `Cc1ccc(C(=O)N2CCC(O)(Cn3cnc4c(cc(Cl)n4-c4ccc([C@H]5CO[C@H](C)CN5)c(C)c4)c3=O)CC2)c(Cl)c1` [Example 57, 6-Chloro-3-((1-(2-chloro-4-methylbenzoyl)-4-hydroxypiperidin-4-yl)methyl)-7-(3-methyl-4-((3S,6R)-6-methylmorpholin-3-yl)phenyl)-3,7-dihydro-4H-pyrrolo[2,3-d]pyrimidin-4-one], the pIC50 is > 7.00 and the IC50 worked out at 0.084 µM.

Consider `Cc1cc(-n2c(Cl)cc3c(=O)n(CC4(O)CCN(C(=O)C5(C)CC5)CC4)cnc32)ccc1[C@@H]1COCCN1` (single isomer, unassigned) [Example 74], for which the pIC50 was 6.60 to 7.00 and the IC50 turned out to be 0.112 µM.
